What all share (type): biochemical
Assay [1] addresses human recombinant acetylcholinesterase (hAChE) (Homo sapiens, UniProt P22303). Kind of assay: Inhibition of hAChE, Ellman method. In general terms: In Ellman's method for cholinesterases, released thiocholine reacts with DTNB.
Assay [2] addresses human recombinant butyrylcholinesterase (hBuChE) (Homo sapiens, UniProt P06276). Kind of assay: Inhibition of hBuChE, Ellman method.
The target of assay [3] is T1, human recombinant MAO B (Homo sapiens, UniProt P27338).
T1 sequence (P27338 1-520): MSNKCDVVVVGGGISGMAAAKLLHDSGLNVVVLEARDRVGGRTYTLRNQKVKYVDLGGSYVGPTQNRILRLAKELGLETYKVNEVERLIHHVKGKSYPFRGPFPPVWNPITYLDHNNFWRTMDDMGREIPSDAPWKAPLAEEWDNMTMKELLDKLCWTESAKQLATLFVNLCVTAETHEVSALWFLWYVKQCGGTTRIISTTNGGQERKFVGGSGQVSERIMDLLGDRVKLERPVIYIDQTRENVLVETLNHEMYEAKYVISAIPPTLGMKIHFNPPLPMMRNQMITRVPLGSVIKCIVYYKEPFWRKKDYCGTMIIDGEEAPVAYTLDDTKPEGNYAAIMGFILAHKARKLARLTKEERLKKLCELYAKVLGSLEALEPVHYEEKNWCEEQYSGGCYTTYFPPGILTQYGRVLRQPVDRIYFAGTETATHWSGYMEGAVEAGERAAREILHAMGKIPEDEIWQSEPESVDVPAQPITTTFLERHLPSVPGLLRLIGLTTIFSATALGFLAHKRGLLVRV
Kind of assay: Time-dependent inhibition of human recombinant MAO B. As to conditions: pre-incubation times 15–60 minutes.

The target of assay [4] is T1, human recombinant MAO B. Kind of assay: Test of reversibility of inhibition of human recombinant MAO B.

The values below come from publication PMC4207550 (Drug Design, Development and Therapy, 2014).

human recombinant butyrylcholinesterase (hBuChE), sequence (P06276 29-602): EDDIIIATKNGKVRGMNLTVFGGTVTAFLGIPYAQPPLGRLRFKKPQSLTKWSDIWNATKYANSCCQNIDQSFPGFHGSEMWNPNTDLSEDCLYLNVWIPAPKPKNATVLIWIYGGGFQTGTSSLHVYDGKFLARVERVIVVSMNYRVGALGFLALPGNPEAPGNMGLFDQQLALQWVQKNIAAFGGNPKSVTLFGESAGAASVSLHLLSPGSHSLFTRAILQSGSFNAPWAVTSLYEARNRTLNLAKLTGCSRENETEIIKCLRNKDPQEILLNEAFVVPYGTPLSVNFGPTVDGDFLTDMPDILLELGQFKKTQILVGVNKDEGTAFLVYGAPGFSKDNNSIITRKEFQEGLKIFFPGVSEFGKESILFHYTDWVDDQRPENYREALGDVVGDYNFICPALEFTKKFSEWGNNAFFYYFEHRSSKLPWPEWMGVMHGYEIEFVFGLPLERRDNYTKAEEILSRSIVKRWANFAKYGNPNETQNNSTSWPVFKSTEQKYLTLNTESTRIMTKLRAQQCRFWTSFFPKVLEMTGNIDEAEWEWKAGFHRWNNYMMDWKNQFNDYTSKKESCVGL
human recombinant acetylcholinesterase (hAChE), sequence (P22303 32-614): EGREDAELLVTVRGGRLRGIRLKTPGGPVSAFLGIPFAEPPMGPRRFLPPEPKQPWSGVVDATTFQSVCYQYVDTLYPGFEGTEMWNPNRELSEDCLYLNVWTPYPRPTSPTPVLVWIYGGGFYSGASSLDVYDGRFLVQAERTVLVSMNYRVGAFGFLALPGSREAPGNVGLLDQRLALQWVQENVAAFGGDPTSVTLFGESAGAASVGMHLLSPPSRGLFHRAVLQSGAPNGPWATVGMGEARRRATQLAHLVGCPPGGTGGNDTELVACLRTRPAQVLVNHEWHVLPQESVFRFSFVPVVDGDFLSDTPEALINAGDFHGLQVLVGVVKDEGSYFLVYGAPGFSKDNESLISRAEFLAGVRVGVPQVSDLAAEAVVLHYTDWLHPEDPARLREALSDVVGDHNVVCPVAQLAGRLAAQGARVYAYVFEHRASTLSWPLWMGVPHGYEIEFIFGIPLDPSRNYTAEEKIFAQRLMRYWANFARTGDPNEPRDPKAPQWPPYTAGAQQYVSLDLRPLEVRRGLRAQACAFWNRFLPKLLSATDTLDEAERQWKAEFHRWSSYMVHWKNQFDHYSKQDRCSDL

In the case of `C#CCNc1nc(NCCCCC2CCN(Cc3ccccc3)CC2)c(C#N)cc1C#N` [DPH16], in assay [1] (vs donepezil), the “fold more active than donepezil for the inhibition of hAChE” value is 3.1 fold. The IC50 – broadly, the midpoint of a concentration-inhibition curve – in assay [2] worked out at 790 ± 110 nM. Also, in assay [2] (vs donepezil), the “fold more potent than donepezil for hBuChE” value is 9.2 fold.
`C#CCNc1nc(NCCCCC2CCN(Cc3ccccc3)CC2)c(C#N)c(-c2ccccc2)c1C#N` [DPH12]: in assay [2], the 50% inhibitory concentration (IC50) came to 770 ± 140 nM.
The same measure, in the same setting: with `C#CCN(C)c1nc(NCCCCC2CCN(Cc3ccccc3)CC2)c(C#N)c(-c2ccccc2)c1C#N` [DPH9] the figure was 1190 nM.
Take `C#CCN(C)c1nc(NCCCCC2CCN(Cc3ccccc3)CC2)c(C#N)cc1C#N` [DPH14]: the IC50 came to 13.1 ± 2.1 nM in assay [1] and 835 ± 139 nM in assay [2]. Moreover, the “time dependence of hMAO B inhibition” value on human recombinant MAO B [3] was “time-dependent inhibition”. Besides, the “reversibility of hMAO B inhibition” value on human recombinant MAO B [4] (50 μM, after 100-fold dilution with 1 mM tyramine) is “irreversible”. Besides, the inhibition – broadly, the percentage by which the read-out fell short of the control – at 50 µM on human recombinant MAO B [4] (read-out: initial MAO B inhibition) was 55%.
